Assay results reported in PMC5531531, “A synthetic cationic antimicrobial peptide inhibits inflammatory response and the NLRP3 inflammasome by neutralizing LPS and ATP” (PLoS ONE, 2017).
No end group written: not given here.

What was measured:
[1] = test system: iNOS and COX-2 in E. coli-LPS-activated RAW 264.7 macrophages; assay: iNOS and COX-2 expression (Western blot, quantitative real-time PCR); assay type: cell-based, mouse
Description: (§1) The protein expression levels of iNOS, COX-2, ERK1/2, JNK1/2, p38, IκB-α, PKC, caspase-1 and the phosphorylation levels of ERK1/2, JNK1/2, p38, PKC-α, PKC-δ, IκB-α were determined by Western blotting as described in detail previously.
RAW 264.7 (2 × 10^6 in 2 ml of medium) were seeded in 6-cm dishes and then treated with or without LPS (0.1 μg/ml) in the absence or presence of AMP for 6 h. Total RNA was extracted from the treated cells by TRIzol reagent (Gibco, Grand Island, NY, USA) and the cDNA was prepared as described in detail previously. The mRNA expression levels of iNOS and COX-2 were measured by quantitative real-time PCR using the StepOne real-time PCR system (Applied Biosystems, Foster City, CA, USA). The primers used were: for mouse iNOS, forward 5- […]-3 and reverse 5-TGAACGAGGAGGGTGGTG-3; for mouse COX-2, forward 5-[…]-3 and reverse 5-[…]-3. The gene expression data are presented as the relative expression (LPS group as 100%) normalized to that of glyceraldehyde-3-phosphate dehydrogenase (GAPDH).

[2] = test system: C57BL/6 mice injected with E. coli LPS; assay type: in vivo, mouse
Description: The expression levels of IL-1β, IL-6 and TNF-α in the conditional medium, sera and lavage fluids were measured by ELISA as described in detail previously.
as §1
Experiments were performed on 8-week-old male C57BL/6 mice purchased from the National Laboratory Animal Center (Taipei, Taiwan). The mice were randomized into the following four groups: Group I: control, intraperitoneal injection of 100 μl of sterile PBS, n = 3; Group II: LPS, intraperitoneal injection of 100 μl of sterile PBS containing E. coli LPS (10 mg/kg), n = 5; Group III: GW-A2+LPS, intraperitoneal injection of 100 μl of sterile PBS containing E. coli LPS (10 mg/kg) and GW-A2 (10 mg/kg), n = 5. Group IV: AMP, intraperitoneal injection of 100 μl of sterile PBS containing GW-A2 (10 mg/kg), n = 3. Sera were collected for analysis at 4 h after LPS injection. Peritoneal lavages, lungs and livers were collected for analysis at 24 h after LPS injection.
Lungs, livers and kidney were fixed in 10% formalin and paraffin-embedded, then 4 um thick sections were cut and stained with hematoxylin and eosin was described in detail previously. Scoring of the polymorphonuclear neutrophils (PMN) infiltration was determined by counting in 5 randomly sampled fields by light microscopy at a magnification of x400 evaluated by a pathologist in National Defense Medical Center (Taipei, Taiwan).

[3] = test system: cell surface of paraformaldehyde-fixed RAW 264.7 cells; assay: Flow cytometry, binding to the cell surface; assay type: cell-based, mouse; settings: fixed RAW 264.7, GW-A2 30 min then 2 μg/ml LPS-FITC 30 min, 4°C; Fig 6A
Description: For binding of GW-A2 to the cell surface, RAW 264.7 cells were fixed for 15 min with 2% paraformaldehyde and then incubated for 30 min with 20 μM of GW-A2-FITC at 4°C. After washing, cells were subjected to flow cytometric analysis on a FACSCalibur using CellQuest Software (Becton Dickinson Inc., San Jose, CA, USA). To assess binding of LPS to the cell surface, RAW 264.7 cells were fixed for 15 min with 2% paraformaldehyde and then incubated for 30 min with GW-A2. This was followed by incubation for 30 min with 2 μg/ml of LPS-FITC (F3665, Sigma) at 4°C. After washing, the cells were subjected to flow cytometric analysis.

[4] = test system: NF-κB activity in RAW-Blue cells; assay: NF-κB reporter assay; assay type: cell-based; settings: E. coli LPS 0.1 μg/ml 24 h, QUANTI-Blue, Fig 2D
Description: RAW-Blue™ cells (2 × 10^5 in 0.5 ml of medium) were seeded in 24-well plates and then incubated with LPS (0.1 μg/ml) in the presence or absence of AMPs for 24 h. The NF-κB activity was assayed by QUANTI-Blue™ (rep-qb1, InvivoGen) as described in detail previously.

[5] = Western blot, E. coli LPS 0.1 μg/ml 24 h, Fig 1C
[6] = quantitative real-time PCR, E. coli LPS 0.1 μg/ml 6 h, Fig 1D
[7] = i.p. E. coli LPS 10 mg/kg with GW-A2 10 mg/kg, n = 5, sera 4 h after LPS, ELISA, Fig 5A

Sequence: GAKYAKIIYNYLKKIANALW [GW-A2]
- COX-2 protein expression level [1, 5]: inhibited
- iNOS protein expression level [1, 5]: inhibited
- Inhibitory activity on COX-2 protein expression, 4 μM compared to 2 μM ([1]; Western blot, 4 μM of GW-A2 compared to 2 μM): lower inhibitory activity
- COX-2 mRNA expression level [1, 6]: inhibited
- iNOS mRNA expression level [1, 6]: inhibited
- IL-1β level in the sera [2, 7]: significantly reduced
- IL-6 level in the sera [2, 7]: significantly reduced
- TNF-α level in the sera [2, 7]: significantly reduced
- Infiltration of PMN into the lung and liver ([2]; i.p. LPS 10 mg/kg with GW-A2 10 mg/kg, 24 h, H&E, 5 fields x400, Fig 5D, 5E): reduced
- Expression levels of iNOS, COX-2 and NLRP3 in the lung and liver ([2]; i.p. LPS 10 mg/kg with GW-A2 10 mg/kg, tissues 24 h after LPS, Western blot, Fig 5C): reduced
- Adverse effects in GW-A2-injected mice ([2]; mouse, in vivo, ip, 10 mg/kg): no adverse effects were observed
- Behaviors of GW-A2-injected mice versus control mice ([2]; mouse, in vivo, ip, 10 mg/kg): not significantly different
- Competition with LPS-FITC for cell surface binding [3]: did not compete
- LPS-FITC binding to the cell surface in presence of GW-A2 [3]: increase in LPS-FITC binding to the cell surface
- NF-κB transcriptional activity [4]: reduced by GW-A2 in a dose-dependent manner
